# Measurements as given in US20150306112A1 (National Cheng Kung University, priority 2014, published 2015).
# Columns and labels:
# JAK1 and TYK2 = assay: Immunoblot of IFN-α/IFN-β-induced STAT1 and JAK1 phosphorylation in Jurkat cells; assay type: cell-based, human
# Protocol: (§1) FIG. 3. […] Total cell lysates were examined for the indicated proteins by immunoblotting. (B) Jurkat cells were transfected with p-GAS-Luc plasmids. […] Total cell lysates were harvested, and their luciferase activities were determined and normalised to the total protein. […] Total mRNA was prepared, and the mRNA levels of IRF-1 and SOCS-1 were detected by RT-PCR. GAPDH was used as the reference band. […] Total cell lysates were examined for the indicated proteins by immunoblotting. β-actin was used as internal control. […] Total cell lysates were examined for the indicated proteins by immunoblotting. All data are one of three independent experiments with similar results.
# (§2) As JAK2/STAT3 signaling has a role in human hepatoma HepG2 cell proliferation, JAK2 activation promotes recruitment to the receptor complex of STAT3 and STAT5 [32], and LMO2 expression.
# [1] = test system: Con A-induced liver injury; assay: Con A-induced hepatitis in mice; assay type: in vivo, C57BL/6 mice
# Protocol: FIG. 4. […] (A) Representative microphotographs showing liver and spleen histopathologic changes with hematoxylin-and-eosin-staining (original magnification ×200). (B) The necrosis was analysed with a four-point score: 0, no; 1, 1-20% necrosis; 2, 20-40% necrosis; 3, >40% necrosis. Infiltration of leukocytes was graded on a four-point severity scale: 0, none; 1, little; 2, moderate; 3, mass. (C) Serum ALT and AST activities were measured at 8 h after Con A injection. (D) Serum levels of IFN-γ, IL-6 and IL-4 were measured at 8 h after Con A injection by ELISA. (E) Proteins from liver and spleen tissues of vehicle, ZAA and dexamethasone-treated mice were extracted and subjected to immunoblot. Values are shown as mean±S.E.M. from individual mice (n=10-13 mice/group). ***P<0.001,**P<0.01, *P<0.05 as compared with vehicle-treated mice. Similar results were obtained in at least three independent experiments.
# The positive control animals with Con A-induced hepatitis were given the same amount of solvent (0.2% cyclodextrin) i.p., without any drugs. Blood samples were collected from each group for plasma transaminase activities and cytokine expression level determination. Part of the liver and spleen biopsy samples were fixed in 10% formalin, embedded in paraffin for further hematoxylin-eosin staining and the rest of the tissue samples were frozen at −80° C. for further studies.
# Liver injury was quantified by determination of alanine aminotransferase (ALT) and aspartate aminotransferase (AST) activities in serum, according to the Reitman-Frankel method.
# human JAK2 JH1-JH2 = assay: Native PAGE antibody competition, JAK2 JH1-JH2; assay type: binding; conditions: antibody against JAK2 aa 745-955
# Jurkat cells = assay: Jurkat cell proliferation by MTS assay and caspase immunoblot; assay type: cell-based, human
# [2] = test system: interferon-gamma activated sequence (GAS); assay: Reporter assay for GAS transactivation activity; assay type: cell-based, human; conditions: Jurkat cells, IFN-γ 20 ng/mL, luciferase reporter
# Protocol: as §1
# The serum-containing medium of logarithmic growth Jurkat cells was replaced with serum-free RPMI, and the cells were transfected with p-GAS-Luc (0.5 μg/mL) plasmids using the Neon Transfection System (Invitrogen). Four hours later, the serum-free medium was replaced with RPMI containing 10% FBS. […] Luciferase reporter activity was measured according to the manufacturer's recommendation.
# IRF-1 in Jurkat cells = assay: IRF-1 expression by immunoblot in Jurkat cells; assay type: cell-based, human; conditions: 20 μM, vs vehicle-treated cells
# Protocol: (§3) FIG. 1. […] After the incubation, cell lysates were assessed by immunoblot. […] In the same condition, cell proliferation was evaluated at 24, 48 and 72 h by MTS assay (lower). […] Data are expressed as the mean±SEM (n=4). **P, 0.01; ***P, 0.001 vs. stimulators-treated groups. Similar results were obtained in at least three independent experiments.
# The increase in cleaved pro-caspase-3 and pro-caspase-8 was also observed at the end of the 24 h ZAA-treatment. […] In other words, ZAA was safe in normal cells, but not in rapidly proliferating cells.
# [3] = test system: BALB/c and C57/BL6 splenocytes; assay: Mixed lymphocyte reaction assay; assay type: cell-based, mouse; conditions: 72 h, MTS
# Protocol: (§4) FIG. 5. […] Cell proliferation was measured by MTS assay. ***P<0.001, **P<0.01, *P<0.05 when compared with the control group. […] Following incubation, proteins were extracted and assessed by immunoblot analysis. Similar results were obtained in at least three independent experiments.
# The cell number of total lymphocytes was measured using the CellTiter kit.
# JAK2 = assay: Immunoblot of JAK2/STAT phosphorylation in Jurkat and THP-1 cells; assay type: cell-based, human; conditions: ZAA 3 h, cytokine 30 min
# Protocol: as §1
# (§5) Cell lysates were analysed by western blot with primary antibodies against JAK2, pJAK2, JAK3, pJAK3, pSTAT1, pSTAT3, pSTAT5 and β-actin, followed by the appropriate HRP-linked secondary antibodies. Immunoreactive protein bands were detected using an enhanced chemiluminescence (ECL) kit (Pierce Biotechnology, Rockford, Ill.).
# human JAK3 JH1-JH2 = molecular target: T1, human JAK3 JH1-JH2 (Homo sapiens, UniProt P52333); assay: Native PAGE antibody competition, JAK3 JH1-JH2; assay type: binding; conditions: antibody against aa 716-967
# T1 construct: incubated with human JAK2 JH1-JH2 and JAK3 JH1-JH2 at 37° C. for 3 h; purchased Life Technologies
# T1 sequence (P52333 521-1124): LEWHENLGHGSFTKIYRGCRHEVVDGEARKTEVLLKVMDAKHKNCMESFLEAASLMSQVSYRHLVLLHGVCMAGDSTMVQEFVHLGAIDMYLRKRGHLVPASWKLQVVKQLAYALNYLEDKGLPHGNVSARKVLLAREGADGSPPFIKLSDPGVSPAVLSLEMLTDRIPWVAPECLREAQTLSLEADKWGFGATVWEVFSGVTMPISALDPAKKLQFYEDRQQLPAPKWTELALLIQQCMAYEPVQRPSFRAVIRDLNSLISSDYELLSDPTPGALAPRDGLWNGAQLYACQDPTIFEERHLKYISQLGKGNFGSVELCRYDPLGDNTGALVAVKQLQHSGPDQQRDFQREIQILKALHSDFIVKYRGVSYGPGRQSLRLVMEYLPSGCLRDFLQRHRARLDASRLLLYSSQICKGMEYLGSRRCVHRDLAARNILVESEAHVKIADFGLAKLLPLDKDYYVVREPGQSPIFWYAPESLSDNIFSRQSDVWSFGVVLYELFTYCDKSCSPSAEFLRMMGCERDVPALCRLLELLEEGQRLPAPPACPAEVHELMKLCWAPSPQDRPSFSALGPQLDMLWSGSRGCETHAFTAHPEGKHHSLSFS
# Protocol: Samples were loaded onto native PAGE gels for electrophoresis, and the levels of free JH1-JH2 domain were measured by immunoblotting.
# [4] = test system: IFN-γ secretion of primary mouse splenocytes; assay: IFN-γ secretion analysis by ELISA in splenocytes; assay type: cell-based; conditions: 24 h, concentration-dependent
# Protocol: as §3
# Primary mouse splenocytes were plated at 1×10^5 cells/well with 10% FBS RPMI medium in 96-well plates. Four different experimental conditions were tested. […] All experiments were conducted at 37° C. After a total 24 h of incubation, supernatant IFN-γ concentrations were measured by ELISA kit following the manufactures instructions.
# C57/BL6 splenocytes = assay: Splenocyte proliferation by MTS assay; assay type: cell-based, mouse
# Protocol: as §3
# Primary mouse splenocytes were cultured in 96-well plates at a density of 4×10^5 cells/well in 10% FBS RPMI 1640 medium and activated with three different stimulators (Con A: 5 μg/mL; PHA: 2.5 μg/mL; Anti-CD3/CD28: 10/1 μg/mL) at 37° C. in 5% CO2/air. […] The cell proliferation was evaluated by MTS assay with a CellTiter kit (Promega, Madison, Wis.).
# pSTAT1 and IRF-1 = assay: Immunoblot of IFN-γ activated pSTAT1 and IRF-1 in Jurkat, THP-1, HMEC-1 and Chang liver cells; assay type: cell-based, human; conditions: 2 h and 8 h, ZAA pre-treatment
# Protocol: FIG. 7. IFN-γ-activated STAT1 and induced IRF-1 protein expression in Jurkat, THP-1, Chang liver and HMEC-1 cells. […] After various time periods, cells were harvested, and total protein extracts were prepared for imunoblot analysis using the indicated antibodies. Similar results were obtained in at least three independent experiments.
# as §5, with “immunoblotting” for “western blot”, “against” for “against JAK2, pJAK2, JAK3, pJAK3,”, “IRF-1” for “pSTAT5”
# JAK3 = assay: Immunoblot of IL-2 induced JAK3/STAT5 phosphorylation in Jurkat and THP-1 cells; assay type: cell-based, human; conditions: ZAA 3 h, cytokine 30 min
# Protocol: as §1, §5
# STAT3 in RAW264.7 cells = assay: Immunoblot of IL-6-induced pSTAT3 in RAW264.7 cells; assay type: cell-based
# Protocol: as §4
# as §5, with “immunoblotting” for “western blot”, “against” for “against JAK2, pJAK2, JAK3, pJAK3,”, “IRF-1” for “pSTAT5”
# [5] = test system: JAK2, STAT3, STAT5 and LMO2 in HepG2 cells; assay: Immunoblot of JAK2/STAT3/STAT5/LMO2 in HepG2 cells; assay type: cell-based, human; conditions: 20 μM, 48 h
# Protocol: as §1, §2
# [6] = test system: P-388 murine leukaemia cells; conditions: cited from earlier work
# [7] = test system: STAT1, STAT3 and IRF-1 in splenocytes; assay: Immunoblot of IFN-γ/pSTAT1 and IL-6/pSTAT3 signaling in splenocytes; assay type: cell-based, mouse
# Protocol: as §3
# as §5, with “immunoblotting” for “western blot”, “against” for “against JAK2, pJAK2, JAK3, pJAK3,”, “IRF-1” for “pSTAT5”
# [8] = test system: IRF-1 and SOCS-1 transcription; assay: RT-PCR of IRF-1 and SOCS-1 mRNA; assay type: cell-based, human; conditions: Jurkat and THP-1 cells
# Protocol: as §1
# Total RNA was extracted using the Trizol reagent according to the manufacturer's instructions. IRF-1, SOCS-1 and glyceraldehyde 3-phosphate GAPDH mRNA expression levels were detected by RT-PCR.
# [9] = 20 mg/kg i.p., 8 h after Con A injection
compound,measurement,setting,value
"C=C(CC[C@@H](C)[C@H]1CC[C@H]2C3=C(C(=O)C[C@]12C)[C@@]1(C)CCC(=O)[C@@H](C)[C@@H]1CC3=O)C(C)C(=O)O (some centres unmarked) [ZAA, Zhankuic acid A]",JAK1 phosphorylation,JAK1 and TYK2; 20 μM,not suppressed
same,IFN-α and IFN-β-induced STAT1 phosphorylation,"JAK1 and TYK2; Jurkat cells, via JAK1 and TYK2",could not inhibit
same,extent of liver damage (histopathology),"[1]; 20 mg/kg i.p. 1 h prior to Con A, 8 h",markedly reduce
same,pathologic grades: necrosis and infiltration of leukocytes,[1]; 20 mg/kg i.p. pre-treatment,significant preventative effects
same,hepatitis phenotype by ALT and AST serum levels,"[1]; 20 mg/kg i.p., 8 h after Con A",almost completely recovered
same,reduction of serum level of IFN-γ,[1]; [9],37%
same,reduction of serum level of IL-4,[1]; [9],38%
same,reduction of serum level of IL-6,[1]; [9],66%
same,caspase 3 activity and IRF-1 expression in liver and spleen tissues,"[1]; 20 mg/kg pre-treatment, immunoblot",significantly reduced
same,anti-JAK2 antibody recognition of native JH1-JH2 domain,human JAK2 JH1-JH2,reduced
same,cleaved pro-caspase-3 and pro-caspase-8,"Jurkat cells; Jurkat, 24 h ZAA-treatment",increase
same,Jurkat cell proliferation,"Jurkat cells; without or with Con A, MTS",remarkably inhibited
same,GAS-mediated transactivation,[2],inhibited
same,IRF-1 expression,IRF-1 in Jurkat cells,suppressed
same,cell proliferation in mixed lymphocytes reaction,[3],inhibitory effect
same,"IFN-γ-induced JAK2/STAT1, IL-6 induced JAK2/STAT1 and JAK2/STAT3, GM-CSF induced JAK2/STAT5 phosphorylation",JAK2,potently inhibited
same,anti-JAK3 antibody recognition of native JH1-JH2 domain,human JAK3 JH1-JH2,reduced
same,Con-A-induced IFN-γ secretion,[4],reduced
same,stimulator-activated T cell proliferation,"C57/BL6 splenocytes; Con-A, PHA or anti-CD3/CD28-induced splenocytes, concentration-dependent",significantly inhibited
same,"proliferation of splenocytes, ZAA alone","C57/BL6 splenocytes; no stimulator, up to 20 μM",did not affect
same,IFN-γ activated pSTAT1 and IRF-1,pSTAT1 and IRF-1,suppressed
same,IL-2 induced JAK3/STAT5 phosphorylation,JAK3,potently inhibited
same,IL-6-induced Tyr705 phosphorylation of STAT3,STAT3 in RAW264.7 cells,suppress
same,"phosphorylation of JAK2, STAT3 and STAT5, and LMO2 expression",[5],effectively inhibit
same,cytotoxic activity,[6],exhibited cytotoxic activity
same,IRF-1 (downstream of STAT),"[7]; IFN-γ, concentration-dependent",inhibitory effect
same,IL-6-induced Tyr705 phosphorylation of STAT3,[7]; splenocytes,suppress
same,IFN-γ-induced Tyr701 phosphorylation of STAT1,"[7]; splenocytes and Jurkat cells, IFN-γ 30 min",completely inhibit
same,IFN-γ stimulated IRF-1 and SOCS-1 transcription,[8],significantly prevented
